Tests used:
in vivo = details: dog, plasma, po, 75 mg
Method: (§1) Studies have been carried out on Beagle dogs (male and female; body weight 10-11 kg) following an experimental scheme in "cross over".
(§2) The blood has been collected in the presence of eparine (10 U.I./ml) and the plasma, separated by centrifugation, has been immediately frozen and stored at -20° C. until extraction. After about 10-20 days of storage, 0.2 ml of plasma has been drawn from each sample and mixed for 15 seconds with 0.5 ml of NaOH 1N. Thereafter, 4 ml of terbutylmethylether have been added and the whole has been stirred for 1 minute. In order to separate the aqueous phase from the organic phase the whole has been centrifuged for 5 minutes. The organic phase has been then removed and dried to dryness under nitrogen stream. […] An excitation wave length of 285 nm has been chosen in connection with an emission filter of 470 nm.

[1] = system: platelet aggregation (ADP-induced) in platelet rich plasma of rabbits; assay: platelet aggregation inhibiting activity ex vivo; format: in vivo, New Zealand rabbit
Method: The platelet rich plasma (PRP) has been separated by centrifugation for 10 minutes and has been suitable diluted to have always 250,000-300,000 platelet/mm^3 with plasma free of platelets (obtained from blood samples by further centrifugation for 10 minutes at 3200 rpm.
The platelet aggregation has been measured by the turbidimetric method under continuous stirring at 37° C., after having added ADP (Adenosine diphosphate to PRP (1.5 μg/ml).

[2] = dog, oral, 75 mg active ingredient; 0 min
Method: as §1, §2

[3] = pH higher than 5.5-6; cited from earlier work
[4] = cited from earlier work

Which concentration at 10 min (in vivo) does the source give for `OCCN(CCO)c1nc(N2CCCCC2)c2nc(N(CCO)CCO)nc(N3CCCCC3)c2n1` [dipyridamole, 2,2',2",2"'-(4,8-dipiperidinopyrimido/5,4,d/-pyrimidine-2,6-diyldinitrilo)tetraethanol] here?
Its concentration at 10 min is 8 ng/mL.

What about the concentration at 20 min (in vivo) of the same molecule?
Its concentration at 20 min is 24 ng/mL.

What about the concentration at 0.5 h (in vivo) of the same molecule?
The concentration at 0.5 h was 784 ng/mL.

And the concentration at 0.75 h (in vivo)?
Its concentration at 0.75 h is 1620 ng/mL.

What about the concentration at 1 h (in vivo) of the same molecule?
Its concentration at 1 h is 2840 ng/mL.

What about the concentration at 1.5 h (in vivo) of the same molecule?
The concentration at 1.5 h was 3960 ng/mL.

And the concentration at 2 h (in vivo)?
The concentration at 2 h was 4710 ng/mL.

What about the concentration at 2.5 h (in vivo) of the same molecule?
The concentration at 2.5 h was 4730 ng/mL.

What about the concentration at 3 h (in vivo) of the same molecule?
Its concentration at 3 h is 2930 ng/mL.

What about the concentration at 4 h (in vivo) of the same molecule?
The concentration at 4 h was 1970 ng/mL.

And the concentration at 5 h (in vivo)?
The concentration at 5 h was 1290 ng/mL.

What about the concentration at 6 h (in vivo) of the same molecule?
Its concentration at 6 h is 628 ng/mL.

What about the concentration at 7 h (in vivo) of the same molecule?
The concentration at 7 h was 360 ng/mL.

And the “% platelet aggregation” value ([1]; 10 mg/kg os, 0 hr)?
Its value is 83 ± 3.0%.

What about the “% platelet aggregation” value ([1]; 10 mg/kg os, 0.5 hr) of the same molecule?
The value was 63 ± 3.7%.

What about the “% platelet aggregation” value ([1]; 10 mg/kg os, 1 hr) of the same molecule?
Its value is 44 ± 3.2%.

What about the “% platelet aggregation” value ([1]; 10 mg/kg os, 2 hr) of the same molecule?
The value was 40 ± 2.9%.

And the “% platelet aggregation” value ([1]; 10 mg/kg os, 4 hr)?
Its value is 49 ± 2.7%.

And the “% platelet aggregation” value ([1]; 20 mg/kg os, 0 hr)?
Its value is 87 ± 3.2%.

What about the “% platelet aggregation” value ([1]; 20 mg/kg os, 0.5 hr) of the same molecule?
Its value is 58 ± 5.9%.

And the “% platelet aggregation” value ([1]; 20 mg/kg os, 1 hr)?
The value was 29 ± 4.1%.

What about the “% platelet aggregation” value ([1]; 20 mg/kg os, 2 hr) of the same molecule?
Its value is 27 ± 3.8%.

What about the “% platelet aggregation” value ([1]; 20 mg/kg os, 4 hr) of the same molecule?
The value was 38 ± 3.9%.

And the “average plasma concentration of dipyridamole” value [2]?
Its value is 0.

What about the solubility in water [3] of the same molecule?
The solubility in water was “poor soluble in water”.

What about the “blood level at which not pharmacologically active” value ([4]; in vivo) of the same molecule?
Its value is 0.5-1 γ/ml.

And the “blood level with undesired side effects (cephalea and nausea)” value ([4]; in vivo)?
Its value is 2000 to 2500 ng/mL.

What about the adsorption ([4]; in words) of the same molecule?
Its adsorption is “not well adsorbed”.

And the “variability of blood levels between and within subjects” value ([4]; in words)?
The value was “blood levels different from one to another subject and for repeated administrations in the same subject”.

What about the “blood level needed to be active as platelet aggregation inhibiting agent” value ([4]; man) of the same molecule?
The value was “higher than 1 mcg/ml”.

What about the “upper blood level (might show side effects such as cephalea and nausea)” value ([4]; man) of the same molecule?
Its value is 2.0 to 2.5 µg/mL.

Reference: patent publication US5010064A, “Inclusion complexes of dipyridamole with cyclodextrins” (Edmond Pharma s.r.l., priority 1987, dated 1991)
